pIC50: −log10 of the molar value. The source made the active and inactive calls. No cut-off for these calls is given here.
Columns and labels:
[1] = Inhibition of Saccharomyces cerevisiae alpha-glucosidase using pNPG as substrate preincubated for 10 mins followed by substrate addition after 20 mins
[2] = Inhibition of rat intestinal rat alpha-glucosidase
Mus musculus = assay: Induction of hypo glycemic activity in ICR mouse assessed as reduction in postprandial glucose level at 10 mg/kg, po pretreated for 30 mins followed by sucrose treatment and measured after 30 to 120 mins; type: functional, organism-based
[3] = biological target: T1, Tyrosine-protein phosphatase non-receptor type 1 (Homo sapiens, UniProt P18031); assay: (§1) Inhibition of human PTP1B expressed in Escherichia coli BL21 (DE3) cells using PNPP as substate preincubated for 5 mins followed by substrate additon and measured after 15 mins
T1 sequence (P18031 whole entry): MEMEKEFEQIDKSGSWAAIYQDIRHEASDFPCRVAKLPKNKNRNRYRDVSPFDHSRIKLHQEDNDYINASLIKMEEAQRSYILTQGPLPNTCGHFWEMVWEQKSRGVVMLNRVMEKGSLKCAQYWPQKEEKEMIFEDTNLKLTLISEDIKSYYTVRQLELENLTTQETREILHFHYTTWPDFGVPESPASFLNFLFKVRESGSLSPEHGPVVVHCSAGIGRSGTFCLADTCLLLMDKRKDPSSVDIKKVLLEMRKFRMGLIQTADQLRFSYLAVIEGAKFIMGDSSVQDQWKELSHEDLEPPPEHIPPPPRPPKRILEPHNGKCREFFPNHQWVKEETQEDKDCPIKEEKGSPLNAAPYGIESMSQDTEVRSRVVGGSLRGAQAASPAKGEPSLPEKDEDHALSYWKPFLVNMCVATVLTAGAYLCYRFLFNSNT

[4] = biological target: T2, Tyrosine-protein phosphatase non-receptor type 1 (Homo sapiens) (UniProt P18031); assay: as §1
T2 sequence (whole entry): T1 sequence (P18031 whole entry)

SMILES	pIC50 [1]	pIC50 [2]	Activity (Mus musculus)	pIC50 [3]	inhibition [4]
C[C@H]1O[C@H](O[C@H]2[C@H](O)[C@@H](O)[C@@H](O[C@H]3[C@H](O)[C@@H](O)C(O)O[C@@H]3CO)O[C@@H]2CO)[C@H](O)[C@@H](O)[C@@H]1N[C@H]1C=C(CO)[C@@H](O)[C@H](O)[C@H]1O (stereo partly specified) [ACARBOSE]	3.23	3.82	Active	–	–
COC1CCC(=O)c2c(O)c(-c3cc(O)c4c(c3O)C(=O)CCC4OC)cc(O)c21 (stereo unspecified)	–	–	–	4.96	–
Cc1cc(O)c2c(c1)C(=O)c1cc(O[C@H]3O[C@H](CO)[C@@H](O)[C@H]3O)cc(O)c1C2=O	3.58	–	–	–	Active
CC(=O)OC[C@H]1O[C@H](Oc2cc(O)c3c(c2)C(=O)c2cc(C)cc(O)c2C3=O)[C@H](OC(C)=O)[C@@H]1OC(C)=O	–	–	–	–	Active
CC(C)=CCc1ccc(O)c2c(=O)c3c(O)cc(C)c(O)c3oc12	–	–	–	4.86	–
CC(=O)O[C@H]1[C@@H](Oc2cc(O)c3c(c2)C(=O)c2cc(C)cc(O)c2C3=O)O[C@H](CO)[C@H]1OC(C)=O	–	–	–	–	Active
O=C1Nc2ccccc2-c2nc3ccccc3c(=O)n2-c2ccccc21	3.84	–	–	–	Active
CC(=O)O[C@H]1[C@@H](O)[C@@H](Oc2cccc3c2C(=O)c2c(O)cc(C)cc2C3=O)O[C@@H]1CO	–	–	–	–	Active
C=CC(C)(C)[C@@]12C[C@@H]3C(=O)N4[C@H](C[C@@]5(C(C)(C)C=C)c6ccccc6N[C@@H]45)C(=O)N3[C@@H]1Nc1ccccc12	4.24	3.13	–	4.82	–
CC1(C)c2[nH]c3cc(Cl)c(Cl)cc3c2C[C@@]23CN4CCC[C@]4(C[C@@H]12)C(=O)N3	4.15	3.34	Active	4.84	–
O=C1Nc2ccccc2-c2nc3ccccc3c(=O)n2-c2c(O)cccc21	3.93	–	–	–	Active
